# Active and inactive are the calls of the source. The calls are words filed in the database; no cut-off is given here.
# What was measured:
# [1] = molecular target: Voltage-gated inwardly rectifying potassium channel KCNH2 (Homo sapiens, UniProt Q12809); assay: Inhibition of hERG transfected in HEK293 cells at <10 uM by electrography; type: toxicity, cell-based; conditions: hek293, 10 µM
# [2] = Metabolic stability in rat liver microsomes assessed as intrinsic clearance preincubated for 5 mins followed by NADPH addition measured for 1 hr by LC-MS analysis; type: ADME, Microsome; conditions: time 65 min, read-out: CLH
# [3] = Thermodynamic solubility of compound at pH 2; type: physicochemical; conditions: buffer, read-out: Therm_solubility
# [4] = Metabolic stability in human liver microsomes assessed as intrinsic clearance preincubated for 5 mins followed by NADPH addition measured for 1 hr by LC-MS analysis; type: ADME, Microsome; conditions: time 65 min, read-out: CLH
# [5] = Plasma protein binding in rat at 2 uM incubated for 1 hr by LC/MS analysis; type: ADME, cell-free; conditions: read-out: PPB (converted)
# [6] = molecular target: Poly [ADP-ribose] polymerase 1 (Homo sapiens, UniProt P09874); assay: Inhibition of PARP1 (unknown origin)
# [7] = Plasma protein binding in dog at 2 uM incubated for 1 hr by LC/MS analysis; type: ADME, cell-free, Canis lupus familiaris; conditions: read-out: PPB (converted)
# RAW264.7 = assay: Inhibition of PARP7 in mouse RAW264.7 cells assessed as increase in IFN-beta level incubated for 24 hrs by ELISA; type: cell-based
# Cytochrome P450 1A2 = molecular target: T1, Cytochrome P450 1A2 (Homo sapiens, UniProt P05177); assay: Inhibition of CYP1A2 in human liver microsomes using phenacetin as substrate preincubated for 10 mins followed by substrate addition measured for 30 mins by LC-MS analysis; type: ADME, Microsome
# T1 sequence (P05177 whole entry): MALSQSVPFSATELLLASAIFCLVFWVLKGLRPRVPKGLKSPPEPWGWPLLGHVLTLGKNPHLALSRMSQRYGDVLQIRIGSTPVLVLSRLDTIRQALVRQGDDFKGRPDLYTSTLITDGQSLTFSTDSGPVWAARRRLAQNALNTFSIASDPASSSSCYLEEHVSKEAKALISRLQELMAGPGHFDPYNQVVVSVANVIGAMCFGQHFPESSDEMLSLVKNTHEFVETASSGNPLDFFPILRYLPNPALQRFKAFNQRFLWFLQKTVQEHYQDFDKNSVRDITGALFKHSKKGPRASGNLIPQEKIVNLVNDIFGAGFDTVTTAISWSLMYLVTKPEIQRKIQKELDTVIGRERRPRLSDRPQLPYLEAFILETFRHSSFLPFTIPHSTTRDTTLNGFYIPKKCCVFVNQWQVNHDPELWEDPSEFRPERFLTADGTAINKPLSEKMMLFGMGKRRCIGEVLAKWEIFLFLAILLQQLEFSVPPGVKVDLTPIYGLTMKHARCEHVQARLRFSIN
# [8] = Cmax in fasted Beagle dog at 10 mg/kg, po measured for 24 hrs by LC-MS analysis; type: ADME, organism-based, Canis lupus familiaris; conditions: in vivo
# [9] = molecular target: Protein mono-ADP-ribosyltransferase PARP14 (Homo sapiens, UniProt Q460N5); assay: Inhibition of PARP14 (unknown origin)
# [10] = Half life in fasted Beagle dog at 2 mg/kg, iv measured for 24 hrs by LC-MS analysis; type: ADME, organism-based, Canis lupus familiaris; conditions: in vivo
# [11] = molecular target: Poly [ADP-ribose] polymerase 2 (Homo sapiens, UniProt Q9UGN5); assay: Inhibition of PARP2 (unknown origin)
# [12] = AUC in fasted Beagle dog at 10 mg/kg, po measured for 24 hrs by LC-MS analysis; type: ADME, organism-based, Canis lupus familiaris; conditions: in vivo
# NCI-H1373 = assay: Antitumor activity against human NCI-H1373 cells xenografted in […] SCID mouse model assessed as tumor growth inhibition at 30 mg/kg, po administered everyday measured after 21 days relative to control; type: functional; conditions: NCI-H1373, 504 h, time 21 day, read-out: TGI
# [13] = Metabolic stability in monkey liver microsomes assessed as intrinsic clearance preincubated for 5 mins followed by NADPH addition measured for 1 hr by LC-MS analysis; type: ADME, Macaca mulatta, Microsome; conditions: rhesus monkey, time 65 min, read-out: CLH
# [14] = Kinetic solubility of compound at pH 6.5; type: physicochemical; conditions: buffer, read-out: Kinetic_solubility
# [15] = Plasma protein binding in human at 2 uM incubated for 1 hr by LC/MS analysis; type: ADME, cell-free; conditions: read-out: PPB (converted)
# [16] = Clearance in fasted ICR mouse at 2 mg/kg, iv measured for 24 hrs by LC-MS analysis; type: ADME, organism-based; conditions: in vivo
# MDA-MB-436 = assay: Antiproliferative activity against human MDA-MB-436 cells assessed as inhibition of cell viability at 0.1 uM incubated for 7 days by luminescence based assay; type: functional; conditions: time 7.0 day
# [17] = Metabolic stability in mouse liver microsomes assessed as intrinsic clearance preincubated for 5 mins followed by NADPH addition measured for 1 hr by LC-MS analysis; type: ADME, Microsome; conditions: time 65 min, read-out: CLH
# [18] = Plasma protein binding in monkey at 2 uM incubated for 1 hr by LC/MS analysis; type: ADME, cell-free, Macaca mulatta; conditions: rhesus monkey, read-out: PPB (converted)
# Cytochrome P450 2D6 = Cytochrome P450 2D6 (Homo sapiens, UniProt P10635); assay: Inhibition of CYP2D6 in human liver microsomes using dextromethorphan as substrate preincubated for 10 mins followed by substrate addition measured for 30 mins by LC-MS analysis; type: ADME, Microsome
# [19] = Oral bioavailability in fasted ICR mouse at 10 mg/kg measured for 24 hrs by LC-MS analysis; type: ADME, organism-based; conditions: in vivo
# [20] = Clearance in fasted Beagle dog at 2 mg/kg, iv measured for 24 hrs by LC-MS analysis; type: ADME, organism-based, Canis lupus familiaris; conditions: in vivo
# [21] = molecular target: T2, Protein mono-ADP-ribosyltransferase PARP11 (Homo sapiens, UniProt Q9NR21); assay: Inhibition of PARP11 (unknown origin)
# T2 sequence (Q9NR21 whole entry): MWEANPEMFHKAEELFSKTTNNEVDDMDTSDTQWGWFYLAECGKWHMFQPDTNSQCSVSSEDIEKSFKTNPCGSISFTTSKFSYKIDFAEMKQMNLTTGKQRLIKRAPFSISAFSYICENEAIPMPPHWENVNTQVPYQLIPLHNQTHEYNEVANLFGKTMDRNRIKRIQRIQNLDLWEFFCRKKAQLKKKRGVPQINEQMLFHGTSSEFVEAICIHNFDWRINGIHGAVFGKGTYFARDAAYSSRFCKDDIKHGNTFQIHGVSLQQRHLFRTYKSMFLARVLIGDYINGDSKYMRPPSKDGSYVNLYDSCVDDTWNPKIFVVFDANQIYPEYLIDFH
# Poly [ADP-ribose] polymerase 1, sequence (P09874 whole entry): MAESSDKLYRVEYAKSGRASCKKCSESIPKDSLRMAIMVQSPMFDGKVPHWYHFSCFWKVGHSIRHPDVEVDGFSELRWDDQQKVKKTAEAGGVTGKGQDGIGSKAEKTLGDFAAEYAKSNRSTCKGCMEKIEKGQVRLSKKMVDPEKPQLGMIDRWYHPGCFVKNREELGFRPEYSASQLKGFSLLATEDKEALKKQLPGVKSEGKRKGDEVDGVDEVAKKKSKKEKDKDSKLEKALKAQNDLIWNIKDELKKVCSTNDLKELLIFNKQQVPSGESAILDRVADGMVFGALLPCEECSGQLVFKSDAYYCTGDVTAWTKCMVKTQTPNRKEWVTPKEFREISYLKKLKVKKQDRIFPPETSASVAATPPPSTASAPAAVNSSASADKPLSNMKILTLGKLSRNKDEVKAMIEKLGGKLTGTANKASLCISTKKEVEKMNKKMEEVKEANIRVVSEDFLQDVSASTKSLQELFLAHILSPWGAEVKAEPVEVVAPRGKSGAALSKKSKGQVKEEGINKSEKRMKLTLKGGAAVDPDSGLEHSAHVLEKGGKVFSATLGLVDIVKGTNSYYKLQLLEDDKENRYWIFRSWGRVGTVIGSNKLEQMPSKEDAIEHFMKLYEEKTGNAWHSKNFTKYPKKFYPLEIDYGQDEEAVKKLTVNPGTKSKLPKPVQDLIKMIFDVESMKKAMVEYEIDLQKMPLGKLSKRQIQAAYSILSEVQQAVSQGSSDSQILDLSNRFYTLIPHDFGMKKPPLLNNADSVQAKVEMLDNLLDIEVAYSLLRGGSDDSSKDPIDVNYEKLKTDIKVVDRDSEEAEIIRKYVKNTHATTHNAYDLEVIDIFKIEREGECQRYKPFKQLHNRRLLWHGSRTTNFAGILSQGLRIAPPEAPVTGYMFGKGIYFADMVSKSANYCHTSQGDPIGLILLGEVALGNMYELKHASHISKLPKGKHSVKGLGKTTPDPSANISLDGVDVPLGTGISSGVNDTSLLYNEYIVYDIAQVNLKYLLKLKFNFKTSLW
# Voltage-gated inwardly rectifying potassium channel KCNH2, sequence (Q12809 whole entry): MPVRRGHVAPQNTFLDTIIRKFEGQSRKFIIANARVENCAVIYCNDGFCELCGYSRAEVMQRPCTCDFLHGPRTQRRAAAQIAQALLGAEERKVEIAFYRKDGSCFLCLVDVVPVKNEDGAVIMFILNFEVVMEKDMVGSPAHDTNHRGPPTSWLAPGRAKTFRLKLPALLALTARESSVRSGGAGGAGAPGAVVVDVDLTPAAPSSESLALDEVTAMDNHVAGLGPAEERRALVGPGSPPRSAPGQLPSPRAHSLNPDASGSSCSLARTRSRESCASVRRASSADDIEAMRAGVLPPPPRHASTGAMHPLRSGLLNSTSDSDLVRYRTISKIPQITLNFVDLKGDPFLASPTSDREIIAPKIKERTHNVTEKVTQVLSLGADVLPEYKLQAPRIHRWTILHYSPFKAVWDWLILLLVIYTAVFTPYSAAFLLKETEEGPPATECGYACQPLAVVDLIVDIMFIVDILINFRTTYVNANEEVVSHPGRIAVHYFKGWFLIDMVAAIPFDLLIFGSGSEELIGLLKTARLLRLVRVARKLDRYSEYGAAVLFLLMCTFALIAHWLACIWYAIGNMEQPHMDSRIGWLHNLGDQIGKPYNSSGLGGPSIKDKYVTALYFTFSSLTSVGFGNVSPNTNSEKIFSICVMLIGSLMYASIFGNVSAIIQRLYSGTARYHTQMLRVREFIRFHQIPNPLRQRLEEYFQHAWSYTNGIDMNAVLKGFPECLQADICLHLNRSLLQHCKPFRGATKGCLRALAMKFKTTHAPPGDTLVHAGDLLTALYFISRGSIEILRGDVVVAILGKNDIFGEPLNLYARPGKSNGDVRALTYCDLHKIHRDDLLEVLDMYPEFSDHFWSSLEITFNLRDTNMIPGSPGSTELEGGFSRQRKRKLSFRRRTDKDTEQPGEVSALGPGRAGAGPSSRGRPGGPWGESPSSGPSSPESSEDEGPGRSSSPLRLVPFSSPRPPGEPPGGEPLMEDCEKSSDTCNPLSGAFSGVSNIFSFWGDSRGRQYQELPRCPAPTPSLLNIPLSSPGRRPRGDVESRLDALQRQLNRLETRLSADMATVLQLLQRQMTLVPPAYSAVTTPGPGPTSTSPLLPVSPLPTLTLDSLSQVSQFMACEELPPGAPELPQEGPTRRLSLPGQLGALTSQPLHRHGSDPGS
# Poly [ADP-ribose] polymerase 2, sequence (Q9UGN5 whole entry): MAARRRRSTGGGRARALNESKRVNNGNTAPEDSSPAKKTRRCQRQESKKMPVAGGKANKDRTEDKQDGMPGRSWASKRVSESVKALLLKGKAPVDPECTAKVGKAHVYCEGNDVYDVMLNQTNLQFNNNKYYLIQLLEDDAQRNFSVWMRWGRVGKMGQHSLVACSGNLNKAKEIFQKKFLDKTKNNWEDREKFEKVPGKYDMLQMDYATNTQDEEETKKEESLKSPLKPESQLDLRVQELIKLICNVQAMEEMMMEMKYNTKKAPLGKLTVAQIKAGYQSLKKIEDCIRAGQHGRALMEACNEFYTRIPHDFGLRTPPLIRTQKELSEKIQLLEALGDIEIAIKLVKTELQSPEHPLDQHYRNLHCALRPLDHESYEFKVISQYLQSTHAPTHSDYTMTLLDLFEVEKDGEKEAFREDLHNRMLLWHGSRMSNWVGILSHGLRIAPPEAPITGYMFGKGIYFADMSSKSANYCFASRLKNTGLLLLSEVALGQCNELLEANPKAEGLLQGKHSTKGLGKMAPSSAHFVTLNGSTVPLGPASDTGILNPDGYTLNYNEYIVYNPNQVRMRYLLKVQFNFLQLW
# Protein mono-ADP-ribosyltransferase PARP14, sequence (Q460N5 whole entry): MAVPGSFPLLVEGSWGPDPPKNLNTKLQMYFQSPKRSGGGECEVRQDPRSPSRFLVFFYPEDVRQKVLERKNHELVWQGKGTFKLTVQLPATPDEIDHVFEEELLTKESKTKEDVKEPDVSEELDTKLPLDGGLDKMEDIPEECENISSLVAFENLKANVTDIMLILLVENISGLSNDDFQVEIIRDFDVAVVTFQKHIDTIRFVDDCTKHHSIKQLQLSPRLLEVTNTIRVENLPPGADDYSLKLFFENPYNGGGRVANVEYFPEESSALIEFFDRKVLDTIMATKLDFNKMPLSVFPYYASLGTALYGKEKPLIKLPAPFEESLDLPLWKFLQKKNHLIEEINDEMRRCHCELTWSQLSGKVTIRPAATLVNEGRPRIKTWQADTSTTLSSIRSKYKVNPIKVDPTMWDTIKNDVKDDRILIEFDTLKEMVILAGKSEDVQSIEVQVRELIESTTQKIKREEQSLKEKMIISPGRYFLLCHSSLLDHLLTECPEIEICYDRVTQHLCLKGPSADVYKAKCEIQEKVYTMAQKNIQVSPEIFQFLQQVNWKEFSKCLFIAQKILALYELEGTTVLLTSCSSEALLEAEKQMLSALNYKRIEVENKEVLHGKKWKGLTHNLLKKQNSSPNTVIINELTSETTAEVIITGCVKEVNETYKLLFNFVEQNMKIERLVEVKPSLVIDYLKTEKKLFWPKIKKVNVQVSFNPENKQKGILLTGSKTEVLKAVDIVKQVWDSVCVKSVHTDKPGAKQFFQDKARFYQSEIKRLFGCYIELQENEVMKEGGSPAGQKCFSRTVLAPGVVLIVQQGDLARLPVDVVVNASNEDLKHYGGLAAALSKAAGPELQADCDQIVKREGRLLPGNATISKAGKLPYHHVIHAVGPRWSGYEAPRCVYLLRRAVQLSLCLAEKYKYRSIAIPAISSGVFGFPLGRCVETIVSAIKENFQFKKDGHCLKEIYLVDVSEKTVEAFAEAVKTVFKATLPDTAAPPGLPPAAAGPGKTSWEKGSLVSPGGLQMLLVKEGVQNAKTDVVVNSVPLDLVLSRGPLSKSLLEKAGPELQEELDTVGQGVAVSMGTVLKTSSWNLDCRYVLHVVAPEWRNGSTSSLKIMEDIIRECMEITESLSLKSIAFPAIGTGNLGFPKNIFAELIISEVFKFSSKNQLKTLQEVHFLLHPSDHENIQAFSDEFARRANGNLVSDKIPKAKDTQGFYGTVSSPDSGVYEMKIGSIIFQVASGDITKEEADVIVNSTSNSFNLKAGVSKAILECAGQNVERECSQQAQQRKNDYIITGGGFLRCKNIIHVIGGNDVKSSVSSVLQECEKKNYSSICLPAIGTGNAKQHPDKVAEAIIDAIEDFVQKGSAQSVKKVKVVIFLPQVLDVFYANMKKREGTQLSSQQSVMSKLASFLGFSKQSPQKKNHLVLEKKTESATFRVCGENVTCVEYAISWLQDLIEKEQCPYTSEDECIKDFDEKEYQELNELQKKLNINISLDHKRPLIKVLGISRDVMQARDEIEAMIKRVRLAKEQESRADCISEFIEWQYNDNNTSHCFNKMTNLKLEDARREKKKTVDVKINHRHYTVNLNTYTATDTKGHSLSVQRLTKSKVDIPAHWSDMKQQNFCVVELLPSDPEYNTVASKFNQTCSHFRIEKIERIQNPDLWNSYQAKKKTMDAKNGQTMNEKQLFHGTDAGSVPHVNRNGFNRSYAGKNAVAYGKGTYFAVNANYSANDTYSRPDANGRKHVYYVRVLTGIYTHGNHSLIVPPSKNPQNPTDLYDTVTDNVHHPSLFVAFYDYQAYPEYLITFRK
# Cytochrome P450 2D6, sequence (P10635 whole entry): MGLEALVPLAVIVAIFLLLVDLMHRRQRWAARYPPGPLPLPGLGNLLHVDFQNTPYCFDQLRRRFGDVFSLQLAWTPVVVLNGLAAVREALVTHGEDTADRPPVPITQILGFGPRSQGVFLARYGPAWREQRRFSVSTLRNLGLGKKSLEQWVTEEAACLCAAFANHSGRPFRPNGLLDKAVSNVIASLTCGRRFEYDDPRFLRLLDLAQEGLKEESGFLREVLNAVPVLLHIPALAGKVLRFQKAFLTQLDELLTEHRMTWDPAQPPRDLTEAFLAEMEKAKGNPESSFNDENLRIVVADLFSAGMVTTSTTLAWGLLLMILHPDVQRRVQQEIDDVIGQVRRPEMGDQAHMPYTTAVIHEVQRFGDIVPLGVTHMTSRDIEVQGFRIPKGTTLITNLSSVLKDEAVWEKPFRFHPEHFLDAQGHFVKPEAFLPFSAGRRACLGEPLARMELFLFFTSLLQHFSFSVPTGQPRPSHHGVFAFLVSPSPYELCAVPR
smiles,measurement,setting,value
O=C(CCOC[C@@H]1CCN1c1cn[nH]c(=O)c1C(F)(F)F)N1CCN2c3ncc(C(F)(F)F)cc3OC[C@@H]2C1,inhibition (INH),[1],Not Active
same,CLint scaled,[2],88.8 mL/min/kg
same,solubility thermodynamic,[3],601 µg/mL
same,CLint scaled,[4],19.8 mL/min/kg
same,"fraction unbound at 1 h, 2 µM",[5],0.044
same,IC50,[6],492 nM
same,"fraction unbound at 1 h, 2 µM",[7],0.006
same,inhibition,RAW264.7,Active
same,IC50,Cytochrome P450 1A2,> 30 µM
same,Cmax,[8],2.3 µg/mL
same,IC50,[9],> 1000 nM
same,half-life,[10],78 min
same,IC50,[11],221 nM
same,AUC,[12],7860 ng·h/mL
same,inhibition in vivo at 30 mg/kg,NCI-H1373,75.2%
same,CLint scaled,[13],79.2 mL/min/kg
same,solubility kinetic,[14],154 µM
same,"fraction unbound at 1 h, 2 µM",[15],0.002
same,clearance,[16],49.2 mL/min/kg
same,Activity,MDA-MB-436,inactive
same,CLint scaled,[17],141 mL/min/kg
same,"fraction unbound at 1 h, 2 µM",[18],0.004
same,IC50,Cytochrome P450 2D6,> 30 µM
same,bioavailability,[19],33.9%
same,clearance,[20],7.5 mL/min/kg
same,IC50,[21],> 1000 nM
